Where “and” joins values, the source holds several entries; their conditions need not be identical. Equal entries are not always repeated.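 96-well plates; 48 h exposure; 5 concentrations. Endpoints by linear interpolation between flanking doses. Not reached: highest tested concentration assigned. GI50: concentration for 50% inhibition of growth. At the TGI there is no net growth.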 Calls of active or inactive are those of the source. Cut-off read from the data, not from the text of the source: active = GI50 below about 0.43 µM; inactive = the rest.
What was measured:
Assay in all cases: NCI tumour cell line growth inhibition, 48 h
[1] = test system: DMS 114 small cell lung
[2] = test system: XF 498 CNS
[3] = test system: LXFL 529 NSCLC
[4] = test system: SNB-78 CNS
[5] = test system: M19-MEL melanoma
[6] = test system: HOP-18 NSCLC
[7] = test system: DLD-1 colon
[8] = test system: RXF-631 renal
[9] = test system: DMS 273 small cell lung

Row | Compound | TGI [1] | TGI [2] | TGI [3] | TGI [4] | TGI [5] | TGI [6] | TGI [7] | GI50 [8] | TGI [8] | GI50 [1] | GI50 [3] | GI50 [4] | GI50 [5] | GI50 [7] | GI50 [9] | TGI [9] | GI50 [6] | outcome [8] | outcome [3] | outcome [6]
1 | NC(=O)C(=O)Cc1nc2ccccc2s1 | > 100 µM | > 100 µM | > 100 µM | > 100 µM | > 100 µM | > 100 µM | – | – | – | – | – | – | – | – | – | – | – | – | – | –
2 | Nc1c(-c2nc3ccccc3s2)[n+]([O-])c2ccccc2[n+]1[O-] | > 100 µM | – | 77.6 µM | > 100 µM | 84.2 µM | 86.2 µM | > 100 µM | – | – | – | – | – | – | – | – | – | – | – | – | –
3 | CC1(C)CC(O)CC(C)(C)N1.CC1(C)CC(O)CC(C)(C)N1.CC1(C)CC(O)CC(C)(C)N1.CC1(C)CC(O)CC(C)(C)N1.Cl.[Ti] | > 100 µM | – | > 100 µM | > 100 µM | > 100 µM | > 100 µM | > 100 µM | > 100 µM | > 100 µM | > 100 µM | > 100 µM | > 100 µM | > 100 µM | > 100 µM | > 100 µM | > 100 µM | > 100 µM | – | – | –
4 | O=C(O)C1=C(C(=O)O)Oc2ccccc2O1 | > 100 µM | > 100 µM | > 100 µM | > 100 µM | > 100 µM | > 100 µM | > 100 µM | – | – | – | – | – | – | – | – | > 100 µM | – | – | – | –
5 | CCOC(=O)COc1cccc2occc(=O)c12 | > 100 µM | > 100 µM | > 100 µM | > 100 µM | > 100 µM | – | > 100 µM | – | – | – | – | – | – | – | – | > 100 µM | – | – | – | –
6 | CC(C)(C)c1cc(C(OCCl)(C(F)(F)F)C(F)(F)F)c2c(c1)C(C(F)(F)F)(C(F)(F)F)OC21c2ccccc2C(=O)c2ccccc21 | > 100 µM | > 100 µM | > 100 µM | > 100 µM | > 100 µM | > 100 µM | > 100 µM | – | > 100 µM | – | – | – | – | – | – | > 100 µM | – | – | – | –
7 | Nc1ncnc2sc(Nc3ccccc3)nc12 | – | > 100 µM | > 100 µM | > 100 µM | > 100 µM | – | > 100 µM | – | > 100 µM | – | – | – | – | – | – | > 100 µM | – | – | – | –
8 | O=C1c2ccoc2C(=O)c2oc(=O)ccc21 | 4.42 µM | 40 µM | 15.2 µM | 42.8 µM | 2.9 µM | 36 µM | 36.4 µM | – | – | – | – | – | – | – | – | 31.6 µM | – | – | – | –
9 | NNC(=O)N/N=C1\CNC(=O)C(=O)C1c1nc2ccccc2s1 (configuration not stated) | > 100 µM | > 100 µM | > 100 µM | > 100 µM | > 100 µM | – | > 100 µM | – | – | – | – | – | – | – | – | > 100 µM | – | – | – | –
10 | O=S(=O)(Cc1ccccc1)SCc1ccccc1 | 32 µM | – | – | 48.2 µM | 53.9 µM | 84.3 µM | 21.9 µM | – | 36.4 µM | – | – | – | – | – | – | 98.2 µM | – | – | – | –
11 | O=C(CCC(=O)C1Cc2ccccc2C1=O)Nc1cccc(C(F)(F)F)c1 (configuration not stated) | – | – | > 100 µM | > 100 µM | > 100 µM | > 100 µM | > 100 µM | – | > 100 µM | – | – | – | – | – | – | > 100 µM | – | – | – | –
12 | O=c1c2cccc3cccc(c4n1CCCN=4)c32 | > 100 µM | > 100 µM | > 100 µM | > 100 µM | > 100 µM | > 100 µM | > 100 µM | – | > 100 µM | – | – | – | – | – | – | > 100 µM | – | – | – | –
13 | Nc1nc(-c2ccccc2)cc(-c2cc(Cl)ccc2O)n1 | > 100 µM | – | > 100 µM | > 100 µM | – | > 100 µM | > 100 µM | – | > 100 µM | – | – | – | – | – | – | > 100 µM | – | – | – | –
14 | COc1ccc2c3c(c(C(=O)O)oc13)C(CCC(=O)O)CC2 (configuration not stated) | > 100 µM | > 100 µM | > 100 µM | > 100 µM | – | > 100 µM | > 100 µM | – | – | – | – | – | – | – | – | > 100 µM | – | – | – | –
15 | C1=C(c2ccccc2)C(OC2Oc3ccccc3C=C2c2ccccc2)Oc2ccccc21 (configuration not stated) | > 100 µM | > 100 µM | > 100 µM | > 100 µM | > 100 µM | > 100 µM | > 100 µM | – | > 100 µM | – | – | – | – | – | – | > 100 µM | – | – | – | –
16 | COc1ccc2nc(-c3ccc(O)cc3)ccc2c1 | > 100 µM | – | > 100 µM | > 100 µM | > 100 µM | > 100 µM | > 100 µM | – | – | – | – | – | – | – | – | – | – | – | – | –

Row | Compound | TGI [1] | TGI [2] | TGI [3] | TGI [4] | TGI [5] | TGI [6] | TGI [7] | GI50 [8] | TGI [8] | GI50 [1] | GI50 [3] | GI50 [4] | GI50 [5] | GI50 [7] | GI50 [9] | TGI [9] | GI50 [6] | outcome [8] | outcome [3] | outcome [6]
17 | C/C(CC(=O)Nc1cccc(Cl)c1C)=N\N=C(N)N | > 100 µM | > 100 µM | > 100 µM | > 100 µM | > 100 µM | > 100 µM | > 100 µM | – | – | – | – | – | – | – | – | > 100 µM | – | – | – | –
18 | C1CCN2CC3CONC3C2C1 (configuration not stated) | > 100 µM | > 100 µM | > 100 µM | > 100 µM | > 100 µM | – | > 100 µM | – | – | – | – | – | – | – | – | > 100 µM | – | – | – | –
19 | Cc1csc(CCC(N)C(=O)O)n1 (configuration not stated) | – | – | > 100 µM | > 100 µM | > 100 µM | > 100 µM | > 100 µM | – | – | – | – | – | – | – | – | > 100 µM | – | – | – | –
20 | CC(=O)c1c(O)c2c([nH]c1=O)CCCC2 | > 100 µM | > 100 µM | > 100 µM | > 100 µM | 44.3 µM | > 100 µM | > 100 µM | – | 59.2 µM | – | – | – | – | – | – | 70.5 µM | – | – | – | –
21 | O=C(Nc1ccc(Cl)c(Cl)c1)C1C(=O)N(c2ccc(Cl)c(Cl)c2)C(=O)/C1=N\O (configuration not stated) | 83.7 µM | – | > 100 µM | > 100 µM | > 100 µM | > 100 µM | > 100 µM | – | – | – | – | – | – | – | – | > 100 µM | – | – | – | –
22 | c1ccc2c(c1)[O][Sn][O]2 | > 150 µg/mL | – | – | > 150 µg/mL | – | – | – | – | – | 8.87 µg/mL | – | > 150 µg/mL | – | – | 10.4 µg/mL | > 150 µg/mL | – | inactive | inactive | inactive
23 | COc1cc2c(cc1OC)C(SC)C(=O)N(Cc1cccc(OC)c1OC)CC2 (configuration not stated) | 5.49 µM | – | 39.5 µM | 5.19 µM | 22.3 µM | > 100 µM | > 100 µM | – | – | – | – | – | – | – | – | 12.2 µM | – | – | – | –
24 | CC1CCC2c3c([nH]c4ccccc34)C3C(=O)N(c4ccccc4)C(=O)C3C2C1 (configuration not stated) | – | 7.55 µM | > 250 µM | 42.2 µM and > 250 µM | > 250 µM | 69.9 µM | > 250 µM | – | > 250 µM | – | – | 35.2 µM | – | – | – | – | – | – | – | –
25 | CCOc1ccc(/C=C2/C(=O)N=C(N)N=C2N)cc1OCC | > 100 µM | > 100 µM | > 100 µM | > 100 µM | > 100 µM | > 100 µM | – | – | > 100 µM | – | – | – | – | – | – | > 100 µM | – | – | – | –
26 | CN(C)CCNC(=O)c1cccc2cc3ccc4ccccc4c3nc12 | – | 0.237 µM | 0.665 µM | 12.5 µM | 0.235 µM | 0.665 µM | 0.817 µM | – | – | – | – | – | – | – | – | 0.163 µM | – | – | – | –
27 | Cc1cc2c(cc1C)[n+](=O)c(C(=O)/C=C/c1ccccc1[N+](=O)[O-])c(C)n2[O-] | 49.1 µM | 37.7 µM | > 100 µM | > 80.9 µM | > 100 µM | > 93.6 µM | > 100 µM | – | – | – | – | – | – | – | – | > 94.5 µM | – | – | – | –
28 | Nc1c(C(=O)Nc2ccccc2O)[n+]([O-])c2ccccc2[n+]1[O-] | 63.5 µM | – | > 100 µM | > 100 µM | 27.7 µM | > 100 µM | > 100 µM | – | > 100 µM | – | – | – | – | – | – | > 100 µM | – | – | – | –
29 | Cn1cc(NC(=O)c2cc(NC(=O)CCCCCCCC(=O)Nc3cc(C(=O)Nc4cc(C(=O)NCCC(=N)N)n(C)c4)n(C)c3)cn2C)cc1C(=O)NCCC(=N)N | 11.9 µM | 56.1 µM | 28.8 µM | 93.5 µM | 16.7 µM | > 100 µM | > 100 µM | – | > 100 µM | – | – | – | – | – | – | 25 µM | – | – | – | –
30 | O=c1c2ccccc2n2cnc3ccc(NCCNCCO)c1c32 | 12.2 µM | – | 16.4 µM | 15.5 µM | 12.9 µM | 26.8 µM | 16.9 µM | – | 8.68 µM | – | – | – | – | – | – | – | – | – | – | –
31 | O=c1[nH]c(=O)n(C2CC(O)C(O)C(CO)O2)cc1F (configuration not stated) | > 100 µM | > 100 µM | > 100 µM | > 100 µM | > 100 µM | > 100 µM | > 100 µM | – | > 100 µM | – | – | – | – | – | – | – | – | – | – | –

— PubChem BioAssay (NCI)
